The source made the active and inactive calls. The calls are words filed in the database; no cut-off is given here.
Experiments:
HepG2 [1] = assay: Cytotoxicity against human HepG2 cells after 48 hrs by MTT assay; format: functional, cell-based; settings: HepG2, 48 h
[2] = Cytotoxicity against human BGC803 cells after 48 hrs by MTT assay; format: functional, cell-based; settings: BGC803, 48 h
SGC-7901 = assay: Cytotoxicity against human SGC7901 cells after 48 hrs by MTT assay; format: functional, cell-based; settings: SGC-7901, 48 h
MCF7 = assay: Cytotoxicity against human MCF7 cells after 48 hrs by MTT assay; format: functional, cell-based; settings: MCF7, 48 h
HepG2 [3] = assay: Effect on human HepG2 cell morphology assessed as cell elongation at 1.25 to 5 uM after 24 hrs by inverted-light microscopy; format: functional, cell-based
HepG2 [4] = assay: Effect on human HepG2 cell morphology assessed as induction of membrane blebbing at 1.25 to 5 uM after 24 hrs by inverted-light microscopy; format: functional, cell-based
HepG2 [5] = assay: Effect on human HepG2 cell morphology assessed as induction of cell shrinkage at 1.25 to 5 uM after 24 hrs by inverted-light microscopy; format: functional, cell-based
HepG2 [6] = assay: Effect on human HepG2 cell morphology assessed as formation of round cells at 1.25 to 5 uM after 24 hrs by inverted-light microscopy; format: functional, cell-based
HepG2 [7] = assay: Induction of necrosis in human HepG2 cells at 1.25 to 5 uM after 24 hrs by inverted-light microscopy; format: functional, cell-based
HepG2 [8] = assay: Effect on human HepG2 cell morphology assessed as cell elongation at 0.5 to 2 uM after 24 hrs by inverted-light microscopy; format: functional, cell-based
HepG2 [9] = assay: Effect on human HepG2 cell morphology assessed as induction of membrane blebbing at 0.5 to 2 uM after 24 hrs by inverted-light microscopy; format: functional, cell-based
HepG2 [10] = assay: Effect on human HepG2 cell morphology assessed as induction of cell shrinkage at 0.5 to 2 uM after 24 hrs by inverted-light microscopy; format: functional, cell-based
HepG2 [11] = assay: Effect on human HepG2 cell morphology assessed as formation of round cells at 0.5 to 2 uM after 24 hrs by inverted-light microscopy; format: functional, cell-based
HepG2 [12] = assay: Induction of necrosis in human HepG2 cells at 0.5 to 2 uM after 24 hrs by inverted-light microscopy; format: functional, cell-based
HepG2 [13] = assay: Induction of apoptosis in human HepG2 cells assessed as nuclear condensation at 1.25 to 5 uM after 24 hrs by DAPI staining-based fluorescence microscopy; format: functional, cell-based
HepG2 [14] = assay: Induction of apoptosis in human HepG2 cells assessed as nuclear condensation at 0.5 to 2 uM after 24 hrs by DAPI staining-based fluorescence microscopy; format: functional, cell-based
HepG2 [15] = assay: Induction of apoptosis in human HepG2 cells assessed as appearance of apoptotic bodies at 1.25 to 5 uM after 24 hrs by fluorescence microscopy; format: functional, cell-based
HepG2 [16] = assay: Induction of apoptosis in human HepG2 cells assessed as appearance of apoptotic bodies at 0.5 to 2 uM after 24 hrs by fluorescence microscopy; format: functional, cell-based
HepG2 [17] = assay: Induction of apoptosis in human HepG2 cells assessed as dead cells at 0.5 uM after 24 hrs using annexin-V and propidium iodide staining by flow cytometry; format: functional
HepG2 [18] = assay: Induction of apoptosis in human HepG2 cells assessed as late apoptotic cells at 0.5 uM after 24 hrs using annexin-V and propidium iodide staining by flow cytometry; format: functional
HepG2 [19] = assay: Induction of apoptosis in human HepG2 cells assessed as early apoptotic cells at 0.5 uM after 24 hrs using annexin-V and propidium iodide staining by flow cytometry; format: functional
HepG2 [20] = assay: Induction of apoptosis in human HepG2 cells assessed as viable cells at 0.5 uM after 24 hrs using annexin-V and propidium iodide staining by flow cytometry; format: functional; settings: HepG2, 24 h, read-out: Activity
HepG2 [21] = assay: Induction of apoptosis in human HepG2 cells assessed as dead cells at 1 uM after 24 hrs using annexin-V and propidium iodide staining by flow cytometry; format: functional
HepG2 [22] = assay: Induction of apoptosis in human HepG2 cells assessed as late apoptotic cells at 1 uM after 24 hrs using annexin-V and propidium iodide staining by flow cytometry; format: functional
HepG2 [23] = assay: Induction of apoptosis in human HepG2 cells assessed as early apoptotic cells at 1 uM after 24 hrs using annexin-V and propidium iodide staining by flow cytometry; format: functional
HepG2 [24] = assay: Induction of apoptosis in human HepG2 cells assessed as viable cells at 1 uM after 24 hrs using annexin-V and propidium iodide staining by flow cytometry; format: functional; settings: HepG2, 24 h, read-out: Activity
HepG2 [25] = assay: Induction of apoptosis in human HepG2 cells assessed as dead cells at 2 uM after 24 hrs using annexin-V and propidium iodide staining by flow cytometry; format: functional
HepG2 [26] = assay: Induction of apoptosis in human HepG2 cells assessed as late apoptotic cells at 2 uM after 24 hrs using annexin-V and propidium iodide staining by flow cytometry; format: functional
HepG2 [27] = assay: Induction of apoptosis in human HepG2 cells assessed as early apoptotic cells at 2 uM after 24 hrs using annexin-V and propidium iodide staining by flow cytometry; format: functional
HepG2 [28] = assay: Induction of apoptosis in human HepG2 cells assessed as viable cells at 2 uM after 24 hrs using annexin-V and propidium iodide staining by flow cytometry; format: functional; settings: HepG2, 24 h, read-out: Activity
HepG2 [29] = assay: Induction of apoptosis in human HepG2 cells assessed as increase in bax expression at 0.5 to 2 uM after 24 hrs; format: functional, cell-based
HepG2 [30] = assay: Induction of apoptosis in human HepG2 cells assessed as decrease in procaspase-3 expression at 0.5 to 2 uM after 24 hrs; format: functional, cell-based
HepG2 [31] = assay: Induction of apoptosis in human HepG2 cells assessed as increase in active caspase-3 expression at 0.5 to 2 uM after 24 hrs; format: functional, cell-based
HepG2 [32] = assay: Induction of apoptosis in human HepG2 cells assessed as dead cells at 1.25 uM after 24 hrs using annexin-V and propidium iodide staining by flow cytometry; format: functional
HepG2 [33] = assay: Induction of apoptosis in human HepG2 cells assessed as late apoptotic cells at 1.25 uM after 24 hrs using annexin-V and propidium iodide staining by flow cytometry; format: functional
HepG2 [34] = assay: Induction of apoptosis in human HepG2 cells assessed as early apoptotic cells at 1.25 uM after 24 hrs using annexin-V and propidium iodide staining by flow cytometry; format: functional
HepG2 [35] = assay: Induction of apoptosis in human HepG2 cells assessed as viable cells at 1.25 uM after 24 hrs using annexin-V and propidium iodide staining by flow cytometry; format: functional; settings: HepG2, 24 h, read-out: Activity
HepG2 [36] = assay: Induction of apoptosis in human HepG2 cells assessed as dead cells at 2.5 uM after 24 hrs using annexin-V and propidium iodide staining by flow cytometry; format: functional
HepG2 [37] = assay: Induction of apoptosis in human HepG2 cells assessed as late apoptotic cells at 2.5 uM after 24 hrs using annexin-V and propidium iodide staining by flow cytometry; format: functional
HepG2 [38] = assay: Induction of apoptosis in human HepG2 cells assessed as early apoptotic cells at 2.5 uM after 24 hrs using annexin-V and propidium iodide staining by flow cytometry; format: functional
HepG2 [39] = assay: Induction of apoptosis in human HepG2 cells assessed as viable cells at 2.5 uM after 24 hrs using annexin-V and propidium iodide staining by flow cytometry; format: functional; settings: HepG2, 24 h, read-out: Activity
HepG2 [40] = assay: Induction of apoptosis in human HepG2 cells assessed as dead cells at 5 uM after 24 hrs using annexin-V and propidium iodide staining by flow cytometry; format: functional
HepG2 [41] = assay: Induction of apoptosis in human HepG2 cells assessed as late apoptotic cells at 5 uM after 24 hrs using annexin-V and propidium iodide staining by flow cytometry; format: functional
HepG2 [42] = assay: Induction of apoptosis in human HepG2 cells assessed as early apoptotic cells at 5 uM after 24 hrs using annexin-V and propidium iodide staining by flow cytometry; format: functional
HepG2 [43] = assay: Induction of apoptosis in human HepG2 cells assessed as viable cells at 5 uM after 24 hrs using annexin-V and propidium iodide staining by flow cytometry; format: functional; settings: HepG2, 24 h, read-out: Activity
HepG2 [44] = assay: Induction of apoptosis in human HepG2 cells assessed as decrease in Bcl-2 expression at 1.25 to 5 uM after 24 hrs; format: functional, cell-based
HepG2 [45] = assay: Induction of apoptosis in human HepG2 cells assessed as decrease in procaspase-3 expression at 1.25 to 5 uM after 24 hrs; format: functional, cell-based

| SMILES | IC50 (HepG2 [1]) | IC50 [2] | IC50 (SGC-7901) | IC50 (MCF7) | Activity (HepG2 [3]) | Activity (HepG2 [4]) | Activity (HepG2 [5]) | Activity (HepG2 [6]) | Activity (HepG2 [7]) | Activity (HepG2 [8]) | Activity (HepG2 [9]) | Activity (HepG2 [10]) | Activity (HepG2 [11]) | Activity (HepG2 [12]) | Activity (HepG2 [13]) | Activity (HepG2 [14]) | Activity (HepG2 [15]) | Activity (HepG2 [16]) | other results |
| --- | --- | --- | --- | --- | --- | --- | --- | --- | --- | --- | --- | --- | --- | --- | --- | --- | --- | --- | --- |
| COC(=O)/C(C)=C\C[C@@]12OC(C)(C)[C@@H]3C[C@@H](C=C4C(=O)c5c(O)c(C6C[C@](C)(OC)CCC6=C(C)C)c6c(c5O[C@]431)CCC(C)(C)O6)C2=O (stereo partly drawn) | 1530 nM | 2010 nM | 1510 nM | 1240 nM | Active | Active | Active | Active | Active | Active | Active | Active | Active | Active | Active | Active | Active | Active | Activity (HepG2 [17]): 0.3%; Activity (HepG2 [18]): 1.3%; Activity (HepG2 [19]): 4.3%; viability at 0.5 µM (HepG2 [20]): 94%; Activity (HepG2 [21]): 0.9%; Activity (HepG2 [22]): 2.5%; Activity (HepG2 [23]): 12.9%; viability at 1 µM (HepG2 [24]): 83.7%; Activity (HepG2 [25]): 3.4%; Activity (HepG2 [26]): 8.1%; Activity (HepG2 [27]): 35%; viability at 2 µM (HepG2 [28]): 53.6%; Activity (HepG2 [29]): Active; Activity (HepG2 [30]): Active; Activity (HepG2 [31]): Active |
| COC(=O)/C(C)=C\C[C@@]12OC(C)(C)[C@@H]3C[C@@H](C=C4C(=O)c5c(O)c6c(c(CC=C(C)C)c5O[C@]431)O[C@](C)(CCC=C(C)C)C=C6)C2=O [METHYL GAMBOGATE] | 2530 nM | 1240 nM | 790 nM | 520 nM |  |  |  |  |  |  |  |  |  |  |  |  |  |  |  |
| CC(C)=CCC[C@]1(C)C=Cc2c(O)c3c(c(CC=C(C)C)c2O1)O[C@]12C(=C[C@@H]4C[C@H]1C(C)(C)O[C@@]2(C/C=C(/C)C(=O)O)C4=O)C3=O [GAMBOGIC ACID] | 2400 nM | 1540 nM | 1470 nM | 500 nM |  |  |  |  |  |  |  |  |  |  |  |  |  |  |  |
| COC(=O)/C(C)=C\C[C@@]12OC(C)(C)[C@@H]3C[C@@H](C=C4C(=O)c5c(O)c6c(c(CC=C(C)C)c5O[C@]431)O[C@]1(C)CCC(=C(C)C)C6C1)C2=O | 1960 nM | 1450 nM | 2150 nM | 1880 nM | Active | Active | Active | Active | Active | Active | Active | Active | Active | Active | Active | Active | Active | Active | Activity (HepG2 [32]): 0.4%; Activity (HepG2 [33]): 4%; Activity (HepG2 [34]): 5.7%; viability at 1.25 µM (HepG2 [35]): 89.8%; Activity (HepG2 [36]): 1.4%; Activity (HepG2 [37]): 4.1%; Activity (HepG2 [38]): 13.6%; viability at 2.5 µM (HepG2 [39]): 80.9%; Activity (HepG2 [40]): 1.8%; Activity (HepG2 [41]): 4.4%; Activity (HepG2 [42]): 20.7%; viability at 5 µM (HepG2 [43]): 73.2%; Activity (HepG2 [44]): Active; Activity (HepG2 [45]): Active |
